From PMC3909494 (Molecular cell, 2013)

Target: T1, TmMre11 (Thermotoga maritima Mre11 (1–324)) (Thermotoga maritima, UniProt Q9X1X0)
T1 sequence (Q9X1X0 1-324): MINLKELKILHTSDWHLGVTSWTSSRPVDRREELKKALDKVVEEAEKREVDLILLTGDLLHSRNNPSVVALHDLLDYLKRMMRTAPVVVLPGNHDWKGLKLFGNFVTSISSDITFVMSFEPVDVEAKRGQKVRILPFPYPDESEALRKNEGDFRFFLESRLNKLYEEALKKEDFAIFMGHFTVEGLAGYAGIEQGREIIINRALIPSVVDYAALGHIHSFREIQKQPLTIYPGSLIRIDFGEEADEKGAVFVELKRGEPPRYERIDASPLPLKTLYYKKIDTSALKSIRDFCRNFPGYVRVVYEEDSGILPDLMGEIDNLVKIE
Test: exonuclease assay
Type: biochemical
Details: conditions only in supplement

SMILES: N=C1NC(=O)/C(=C/c2ccc(O)cc2)S1 [mirin]
- inhibition of exonuclease activity: Nuclease assays using TmMre11
